Data taken from US5279956A, “Activated protein C polypeptides and anti-peptide antibodies, diagnostic methods and systems for inhibiting activated protein C” (The Scripps Research Institute, priority 1991, dated 1994).
Where two headings read alike, the source gives them in different places. No end group written: not given here.

What was measured:
APC [1] = target: T1, APC (Homo sapiens, UniProt P04070); test: APC anticoagulant activity, APTT and Xa-1-stage coagulation assays (mean or both); type: biochemical; details: for IC50: final peptide concentration at which 50% inhibition of APC activity was observed; for inhibition at 500 µM: 500 μM peptide, mean of APTT and Xa-1-stage assays, 0 = no observable effect ± 10%
T1 construct: begins at amino acid residue position 158 and ends at 419; The light chain is 155 amino acid residues in length; tissue Factor IX concentrate from Immuno AG, Vienna; thrombin from Enzyme Research Laboratories
Procedure: The effect of the synthetic peptides on APC anticoagulant activity were determined using the APTT assay in the presence of either normal citrate anticoagulated plasma (NHP) or protein S depleted plasma (PSDP). The assays were performed essentially as described. See Marlar et al., Blood, 59:1067-1072 […]; Suzuki et al., J. Biol. Chem., 258:163-168 (1983); Gruber et al., Blood, 73:639-642 (1989); Ohlin et al., Biochem., 29:644-651 (1990). NHP was purchased from George King Bio-Medical, Inc. (Overland Park, Kans.). PSDP was prepared from a normal human citrate-anticoagulated plasma pool from ten healthy donors. Protein S was immunodepleted from the NHP by immunoaffinity chromatography of NHP over an anti-protein S antibody column to form PSDP. The anti-protein S antibody column was prepared by coupling 100 mg of a monoclonal, high-affinity, calcium-independent anti-PS antibody, designated S7, to 30 ml of CNBr-activated Sepharose 4B (Pharmacia) as described in Example 2c1).
For the APTT assay, APC was prepared as described in Example 2c2). […] The concentration of the APC used in the assay was initially optimized with respect to the sensitivity of the assay towards APC-induced prolongation of clotting time compared to clotting time without APC.
Once the optimal concentration of APC was determined, peptides from Table 2 were then separately admixed for a final concentration of 500 μM with 10 nM APC in 100 μl of TBS-BSA at pH 7.4 to form peptide-APC admixtures. The resulting admixtures were maintained for seven minutes at 37° C. Separate aliquots of peptides maintained under the same conditions in the absence of APC served as controls for the inhibitory effect of synthetic peptides on APC anticoagulant activity. After the maintenance period, 100 μl of NHP and 100 μl APTT-reagent Thrombosil (Ortho Diagnostics, Raritan, N.J.) were admixed into each peptide admixture and maintained for 200 seconds at 37° C. to form a pre-coagulation admixture. In some experiments, PSDP was used in the place of NHP to determine the effect of Protein S on the assay system. Coagulation was then initiated by the admixture of 100 μl of 30 mM CaCl2 in TBS prewarmed to 37° C. to each of the pre-coagulation admixtures. The time for clot formation was measured by an Electra 700 Automatic Coagulation Timer (Medical Laboratory Automation, Inc., Mount Vernon, N.Y.). Each peptide's effect was determined in duplicate.
The synthetic peptides listed in Table 4 are presented in the same order as listed in Table 2, i.e., are reproduced from Table 2. […] For peptides at a concentration of 500 μM that inhibited at least 50% of APC anticoagulant activity, analysis of dose-response was subsequently conducted. The column in Table 4 labeled "Inhibition of APC" represents the inhibition of APC anticoagulant activity measured with 500 μM peptide.
For testing the inhibition of the synthetic peptides on APC activity described above, Xa-1-stage coagulation assays were also performed as described. See Seegers et al., Thrombosis Res., 13:233-243 (1978); Marlar et al., supra; and Walker et al., J. Biol. Chem. 265:1484-1489 (1990).

APC [2] = target: T1, APC; test: Amidolytic activity of APC towards chromogenic substrate S-2366; type: biochemical; details: for effect on APC amidolytic activity towards S-2366: all concentrations up to 500 μM
Procedure: The effects of PC-derived inhibitory synthetic peptides on the amidolytic activity of APC were evaluated to determine if the peptides inhibited APC anticoagulant activity by blocking a region in or close to the active site of the enzyme involved in cleavage of a small substrate such as S-2366 (Kabi-Vitrum) or involved in the site of interaction with the recombinant mutant (Arg^358)α1 -antitrypsin (α1 -AT) (Transgene, Strasbourg, France), the latter of which is described in Example 5a4) below. The assay was performed as described by Marlar et al., supra; and Suzuki et al., supra.
The amidolytic activity of APC toward the peptide substrate S-2366 was measured in the presence of various PC synthetic peptides prepared in Example 1. For the assay, 100 μl of 15 nM APC, prepared in Example 2c2), was admixed with separate aliquots of peptide-(390-404) ranging in concentration from 0.0 to 750 μM prepared in TBS-BSA at pH 7.4 containing 0.02% NaN3 and 2 mM CaCl2 to form APC-peptide admixtures, respectively. After maintenance of the admixtures for 30 minutes at 37° C., 50 μl of 2.4 mM S-2366 in the same buffer was admixed to initiate the amidolytic reaction. The hydrolysis of the substrate was monitored by the change in absorbance at 405 nm at 37° C. over time using an EL312 Microplate Bio-Kinetics Reader (BIO-TEK Instruments, Inc. Vt.).
The amidolytic activity of APC toward the peptide substrate S-2366 was measured in the presence of anti-(390-404) antibody. For the assay, 100 μl of 15 nM APC, prepared in Example 2c2), were admixed with separate aliquots of anti-(390-404) antibody ranging in concentration from 0.0 to 500 nM prepared in TBS-BSA at pH 7.4 containing 0.02% NaN3 and 2 mM CaCl2 to form APC-anti-(390-404) antibody immunoreaction admixtures, respectively. After maintenance of the admixtures for 30 minutes at 37° C. to allow formation of immunoreaction products, 50 μl of 2.4 mM S-2366 in the same buffer was admixed to initiate the amidolytic reaction. The hydrolysis of the substrate was monitored by the change in absorbance at 405 nm over time using an EL312 Microplate Bio-Kinetics Reader (BIO-TEK Instruments, Inc. Vt.).

[3] = final peptide concentration at which 90% inhibition of APC activity was observed, read-out: IC90

T1 sequence (P04070 212-461): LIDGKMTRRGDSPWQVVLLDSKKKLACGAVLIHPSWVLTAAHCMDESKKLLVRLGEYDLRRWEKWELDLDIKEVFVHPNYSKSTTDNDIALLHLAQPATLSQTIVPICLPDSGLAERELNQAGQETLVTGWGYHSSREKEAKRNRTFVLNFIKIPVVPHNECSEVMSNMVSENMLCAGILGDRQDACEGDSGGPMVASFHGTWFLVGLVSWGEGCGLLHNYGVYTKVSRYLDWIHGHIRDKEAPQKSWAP
T1 sequence (P04070 43-197): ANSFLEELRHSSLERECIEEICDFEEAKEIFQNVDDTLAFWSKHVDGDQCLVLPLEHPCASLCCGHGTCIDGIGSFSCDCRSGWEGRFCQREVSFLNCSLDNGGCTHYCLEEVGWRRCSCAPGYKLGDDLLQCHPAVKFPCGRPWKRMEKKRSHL

Row | Substance | IC90 (APC [1]) | IC50 (APC [1]) | APC amidolytic activity towards S-2366, A405 /5 min (APC [2]; APC + 250 μM peptide) | effect on APC amidolytic activity towards S-2366 (APC [2]) | inhibition at 500 µM (APC [1]) | IC90 (APC [1]; [3]) | APC amidolytic activity towards S-2366, A405 /5 min (APC [2]; APC + 500 μM peptide)
1 | KRNRTFVLNFIKIPV-NH2 [peptide-(311-325), KRNRTFVLNFIKIPV] | 50 µM | 20 µM | 0.342 A405 /5 min | did not significantly alter | – | – | –
2 | SGLLHNYGVYTKVSR-NH2 [peptide-(384-398), -SGLLHNYGVYTKVSR] | – | – | – | did not significantly alter | 60% | > 500 µM | 0.378 A405 /5 min
3 | YGVYTKVSRYLDWIH-NH2 [peptide-(390-404), YGVYTKVSRYLDWIH] | – | 5 µM | – | – | 100% | 40 µM | –
